Results taken from US10738035B2, “Hepatitis B antiviral agents” (Enanta Pharmaceuticals, Inc., priority 2015, dated 2020).

What was measured:
[1] = Compound toxicity, ATPLite (CC50); details: human, HepAD38 cells
Method: (§1) Briefly, cells are passaged upon attaining confluency in DMEM/F12 media in the presence of 10% FBS, Penn/Strep, 250 μg/mL G418, and 1 μg/ml tetracycline. Novel compounds are screened by first washing cells three times with PBS to remove tetracycline, and plating in 96 well plates at 35,000 cells/well. Compounds dissolved in DMSO are then diluted 1:200 into wells containing cells. Five days after compound addition, material is harvested for analysis.
Compound toxicity is evaluated by seeding cells at 15,000 cells/well and treating with compound as described above.

[2] = system: hepatitis B virus (HBV); assay: HepAD38 antiviral assay (viral product accumulation, EC50); details: HePAD38, 120 h, read-out: HepAD38 EC50
Method: as §1
On harvest day, virion DNA is obtained by lysing with Sidestep Lysis and Stabilization Buffer and then quantified via quantitative real time PCR. Commercially available ELISA kits are used to quantitate the viral proteins HBsAg (Alpco) or HbeAg (US Biological) by following the manufacturer's recommended protocol after diluting samples to match the linear range of their respective assays.

SMILES	CC50 at 3 days [1]	EC50 [2]
O=S(=O)(c1c(Cl)ccc2c(Nc3cc(F)c(F)c(F)c3)n[nH]c12)N1CCC(O)CC1 [Example 1]	> 30 µM	> 10 µM
Cn1nc(NC(=O)Nc2cc(F)c(F)c(F)c2)cc1S(=O)(=O)N1CCC(O)CC1 [Example 2]	> 30 µM	1 to 10 µM
Cn1nc(NC(=O)N2CCC(O)CC2)cc1C(=O)Nc1cc(F)c(F)c(F)c1 [Example 3]	> 30 µM	< 1 µM
O=S(=O)(c1cc2oc(Nc3cc(F)c(F)c(F)c3)nc2cc1Cl)N1CCC(O)CC1 [Example 4]	< 10 µM	1 to 10 µM
Cn1nc(NS(=O)(=O)C2CCC(O)CC2)cc1C(=O)Nc1cc(F)c(F)c(F)c1 (stereo not drawn) [Example 5]	> 30 µM	< 1 µM
Cn1c(NC(=O)N2CCC(O)CC2)cnc1C(=O)Nc1cc(F)c(F)c(F)c1 [Example 6]	> 10 µM	> 10 µM
O=C(Nc1cc(F)c(F)c(F)c1)c1ccc(Cl)c(NC(=O)N2CCC(O)CC2)c1 [Example 7]	> 30 µM	1 to 10 µM
Cn1nc(NC(=O)N2CCC(O)CC2)cc1-c1ncc(-c2cc(F)c(F)c(F)c2)[nH]1 [Example 8]	> 10 µM	> 10 µM
O=C(Nc1cc(F)c(F)c(F)c1)c1cc(NC(=O)N2CCC(O)CC2)no1 [Example 9]	< 10 µM	> 10 µM
Cn1cc(NC(=O)N2CCC(O)CC2)nc1C(=O)Nc1cc(F)c(F)c(F)c1 [Example 10]	> 30 µM	> 10 µM
Cn1nc(NC(=O)N2CCC(O)CC2)c(Cl)c1C(=O)Nc1cc(F)c(F)c(F)c1 [Example 11]	> 30 µM	1 to 10 µM
Cn1nc(NS(=O)(=O)N2CCC(OCc3ccccc3)CC2)cc1C(=O)Nc1cc(F)c(F)c(F)c1 [Example 12]	10 to 30 µM	1 to 10 µM
Cn1nc(C(=O)Nc2cc(F)c(F)c(F)c2)cc1NC(=O)N1CCC(O)CC1 [Example 13]	> 10 µM	> 10 µM
Cn1nc(NC(=O)C2CCC(O)CC2)cc1C(=O)Nc1cc(F)c(F)c(F)c1 (stereo not drawn) [Example 14]	> 30 µM	1 to 10 µM
Cn1nc(NC(=O)OCCO)cc1C(=O)Nc1cc(F)c(F)c(F)c1 [Example 15]	> 30 µM	< 1 µM
Cn1nc(NC(=O)N2CCCCC2)cc1C(=O)Nc1cc(F)c(F)c(F)c1 [Example 16]	< 10 µM	1 to 10 µM
Cn1nc(NC(=O)N2CCC(F)CC2)cc1C(=O)Nc1cc(F)c(F)c(F)c1 [Example 17]	< 10 µM	1 to 10 µM
Cn1nc(NC(=O)N2CCC(F)(F)CC2)cc1C(=O)Nc1cc(F)c(F)c(F)c1 [Example 18]	> 30 µM	1 to 10 µM
Cn1nc(NC(=O)N2CCC(C)(O)CC2)cc1C(=O)Nc1cc(F)c(F)c(F)c1 [Example 19]	> 30 µM	1 to 10 µM
Cn1nc(NC(=O)N2CCOCC2)cc1C(=O)Nc1cc(F)c(F)c(F)c1 [Example 20]	> 30 µM	1 to 10 µM
CN(CCO)C(=O)Nc1cc(C(=O)Nc2cc(F)c(F)c(F)c2)n(C)n1 [Example 21]	> 30 µM	1 to 10 µM
CN(C(=O)Nc1cc(C(=O)Nc2cc(F)c(F)c(F)c2)n(C)n1)C1CC1 [Example 22]	> 30 µM	> 10 µM
CN(Cc1ccccc1)C(=O)Nc1cc(C(=O)Nc2cc(F)c(F)c(F)c2)n(C)n1 [Example 23]	< 10 µM	1 to 10 µM

SMILES	CC50 at 3 days [1]	EC50 [2]
COCCNC(=O)Nc1cc(C(=O)Nc2cc(F)c(F)c(F)c2)n(C)n1 [Example 24]	> 30 µM	1 to 10 µM
CN(C)CCNC(=O)Nc1cc(C(=O)Nc2cc(F)c(F)c(F)c2)n(C)n1 [Example 25]	> 30 µM	> 10 µM
Cn1nc(NC(=O)NCC2(C)CC2)cc1C(=O)Nc1cc(F)c(F)c(F)c1 [Example 26]	> 30 µM	< 1 µM
Cn1nc(NC(=O)N(CCO)CCO)cc1C(=O)Nc1cc(F)c(F)c(F)c1 [Example 27]	> 30 µM	> 10 µM
CN(C(=O)Nc1cc(C(=O)Nc2cc(F)c(F)c(F)c2)n(C)n1)C1CCCCC1 [Example 28]	> 30 µM	< 1 µM
Cn1nc(NC(=O)N2CCC(O)C2)cc1C(=O)Nc1cc(F)c(F)c(F)c1 (stereo not drawn) [Example 29]	< 10 µM	1 to 10 µM
CCCN(C)C(=O)Nc1cc(C(=O)Nc2cc(F)c(F)c(F)c2)n(C)n1 [Example 30]	> 30 µM	< 1 µM
CCCCNC(=O)Nc1cc(C(=O)Nc2cc(F)c(F)c(F)c2)n(C)n1 [Example 31]	> 30 µM	1 to 10 µM
Cn1nc(NC(=O)NCCO)cc1C(=O)Nc1cc(F)c(F)c(F)c1 [Example 32]	10 to 30 µM	1 to 10 µM
C=CCn1nc(NC(=O)N2CCC(O)CC2)cc1C(=O)Nc1cc(F)c(F)c(F)c1 [Example 33]	> 30 µM	1 to 10 µM
Cn1nc(NC(=O)N2CCC(O)CC2)cc1C(=O)Nc1ccc(F)cc1 [Example 34]	> 30 µM	1 to 10 µM
Cn1nc(NC(=O)N2CCC(O)CC2)cc1C(=O)Nc1ccc(O)c(F)c1 [Example 35]	> 30 µM	> 10 µM
Cn1nc(NC(=O)N2CCC(O)CC2)cc1C(=O)Nc1cc(F)c(Cl)c(F)c1 [Example 36]	> 30 µM	> 10 µM
Cn1nc(NC(=O)N2CCC(O)CC2)cc1C(=O)Nc1cccnc1 [Example 37]	> 30 µM	> 10 µM
Cn1nc(NC(=O)N2CC(O)C2)cc1C(=O)Nc1cc(F)c(F)c(F)c1 [Example 38]	10 to 30 µM	< 1 µM
CN(CCCO)C(=O)Nc1cc(C(=O)Nc2cc(F)c(F)c(F)c2)n(C)n1 [Example 39]	> 30 µM	1 to 10 µM
CCN(C)C(=O)Nc1cc(C(=O)Nc2cc(F)c(F)c(F)c2)n(C)n1 [Example 40]	< 10 µM	1 to 10 µM
CC(C)CN(C)C(=O)Nc1cc(C(=O)Nc2cc(F)c(F)c(F)c2)n(C)n1 [Example 41]	> 30 µM	< 1 µM
Cn1nc(NC(=O)NCCS(C)(=O)=O)cc1C(=O)Nc1cc(F)c(F)c(F)c1 [Example 42]	> 30 µM	1 to 10 µM
Cn1nc(NC(=O)N2CCC(O)CC2)cc1C(=O)Nc1cccc(F)c1 [Example 43]	> 30 µM	1 to 10 µM
Cn1nc(NC(=O)N2CCC(O)CC2)cc1C(=O)Nc1ccc(F)c(F)c1 [Example 44]	> 30 µM	1 to 10 µM
Cn1nc(NC(=O)N2CCC(O)CC2)cc1C(=O)Nc1cccc(F)c1F [Example 45]	> 30 µM	1 to 10 µM
Cn1nc(NC(=O)N2CCC(O)CC2)cc1C(=O)Nc1cc(F)cc(F)c1 [Example 46]	10 to 30 µM	> 10 µM

SMILES	CC50 at 3 days [1]	EC50 [2]
Cn1nc(NC(=O)N2CCC(O)CC2)cc1C(=O)Nc1ccc(F)cc1F [Example 47]	> 30 µM	> 10 µM
Cn1nc(NC(=O)N2CCC(O)CC2)cc1C(=O)Nc1ccc(F)c(Cl)c1 [Example 48]	< 10 µM	1 to 10 µM
Cn1nc(NC(=O)N2CCC(O)CC2)cc1C(=O)Nc1ccc(Cl)c(F)c1 [Example 49]	> 30 µM	1 to 10 µM
Cn1nc(NC(=O)N2CCC(O)CC2)cc1C(=O)Nc1ccc(F)c(O)c1 [Example 50]	> 30 µM	> 10 µM
Cn1nc(NC(=O)N2CCC(O)CC2)cc1C(=O)Nc1ccccc1 [Example 51]	> 30 µM	> 10 µM
Cn1nc(NC(=O)N2CCC(O)CC2)cc1C(=O)Nc1ccc(F)c(C(F)(F)F)c1 [Example 52]	> 30 µM	1 to 10 µM
Cn1nc(NC(=O)N2CCC(O)CC2)cc1C(=O)Nc1ccc(F)c(C#N)c1 [Example 53]	> 30 µM	1 to 10 µM
Cc1cc(NC(=O)c2cc(NC(=O)N3CCC(O)CC3)nn2C)ccc1F [Example 54]	< 10 µM	< 1 µM
COc1cc(NC(=O)c2cc(NC(=O)N3CCC(O)CC3)nn2C)ccc1F [Example 55]	> 30 µM	> 10 µM
Cn1nc(NC(=O)N2CCC(O)CC2)cc1C(=O)Nc1ccncc1 [Example 56]	> 30 µM	> 10 µM
CC(C)N(C)C(=O)Nc1cc(C(=O)Nc2cc(F)c(F)c(F)c2)n(C)n1 [Example 57]	< 10 µM	1 to 10 µM
CN(C(=O)N1CCC(O)CC1)c1cc(C(=O)Nc2cc(F)c(F)c(F)c2)n(C)n1 [Example 58]	> 30 µM	> 10 µM
Cn1nc(NC(=O)N2CCC(O)CC2)cc1C(=O)Nc1ccc(F)cc1Cl [Example 59]	> 30 µM	> 10 µM
Cn1nc(NC(=O)N2CCC(O)CC2)cc1C(=O)Nc1cc(F)c(F)c(Cl)c1 [Example 60]	< 10 µM	1 to 10 µM
Cn1nc(NC(=O)N2CCC(O)CC2)cc1C(=O)Nc1ccccn1 [Example 61]	> 30 µM	> 10 µM
Cn1nc(NC(=O)N2CCC(O)CC2)cc1C(=O)Nc1ccc(O)cc1 [Example 62]	> 30 µM	> 10 µM
Cn1nc(NC(=O)N2CCC(O)CC2)cc1C(=O)Nc1cccc(O)c1 [Example 63]	> 30 µM	> 10 µM
COc1ccc(NC(=O)c2cc(NC(=O)N3CCC(O)CC3)nn2C)cc1 [Example 64]	> 30 µM	> 10 µM
COc1cccc(NC(=O)c2cc(NC(=O)N3CCC(O)CC3)nn2C)c1 [Example 65]	> 30 µM	> 10 µM
CCc1ccc(NC(=O)c2cc(NC(=O)N3CCC(O)CC3)nn2C)cc1 [Example 66]	> 30 µM	> 10 µM
CC(C)c1ccc(NC(=O)c2cc(NC(=O)N3CCC(O)CC3)nn2C)cc1 [Example 67]	> 30 µM	> 10 µM
CC(C)c1cccc(NC(=O)c2cc(NC(=O)N3CCC(O)CC3)nn2C)c1 [Example 68]	> 10 µM	> 10 µM
Cn1nc(NC(=O)N2CCC(O)CC2)cc1C(=O)Nc1ccc(C(C)(C)C)cc1 [Example 69]	> 30 µM	> 10 µM
